# Where “and” joins values, the source holds several entries; their conditions need not be identical. Equal entries are not always repeated.
# Tests used:
# [1] = test system: HPPD-tolerant soybean event SYHT0H2; assay: Glasshouse: post-emergence HPPD herbicide damage with or without Sequestrene 138Fe, 7 DAA; type: in vivo; settings: isoxaflutole, tembotrione
# Protocol: (§1) Safening of Various HPPD-inhibiting Herbicides in HPPD-tolerant Soybean Events SYHT04R and SYHT0H2
# (§2) An experiment is performed to determine whether the addition of chelating iron to the spray formulation can mitigate foliar bleaching injury from the HPPD herbicides mesotrione, bicyclopyrone, tembotrione, isoxaflutole, topramezone and pyrasulfatole when applied post-emergence to the HPPD-tolerant soybean events SYHT04R and SYHT0H2.
# (§3) Soybean plants are grown in a glasshouse (24° C. day, 18° C. night; 65% relative humidity; 16 hour photoperiod). Two replicates are utilised in respect of SYHT0H2 (growth stage V1-V3) and three replicates are utilised in respect of SYHT04R (growth stage V1 to V3). Spray applications are applied post-emergence at […]. Herbicide damage was assessed 7 DAA (Days After Application).
# [2] = test system: HPPD-tolerant soybean event SYHT04R; assay: as above; type: in vivo; settings: isoxaflutole, tembotrione
# Protocol: as §1, §2, §3
# [3] = test system: common waterhemp (Amaranthus rudis); assay: Greenhouse weed control: HPPD inhibitors with or without Sequestrene 138Fe, common waterhemp; type: in vivo; settings: common waterhemp control 17 DAT
# Protocol: A greenhouse experiment is conducted to determine the effect of chelated iron on weed control in the greenhouse. Velvetleaf (Abutilon theophrasti) and common waterhemp (Amaranthus rudis) plants are grown in 4×4-inch pots filled with a greenhouse potting mix. When the plants reached the 2 to 3 inch height (2 to 3 leaf stage), they are sprayed with a reduced rate of an HPPD inhibitor alone or in a tank mix combination with Sequestrene 138Fe at 140 g/ha (equivalent to 8.4 g iron/hectare) or 280 g/ha (equivalent to 16.8 g iron/hectare). […] Observations on percent control are recorded 12, 19, and 25 days after treatment.
# Effect of Tank Mix Applications of Various HPPD Inhibitors and Sequestrene 138Fe on Common Waterhemp Control. Injury Assessed 17 DAT
# An experiment is performed to look at the effect of applying iron chelates on control of Common Waterhemp using HPPD-inhibiting herbicides. Experiment design is analogous to that outlined in Experiment 3 above.
# SYHT0H2 soybeans = assay: Greenhouse: water-soluble iron compounds safening mesotrione, maximum injury; settings: mesotrione 420 g ai/ha, additive none; maximum injury of 6, 9, 16 days after treatment
# Protocol: An experiment is conducted to look at the safening effect of a variety of water-soluble iron-containing compounds. SYHT0H2 soybean plants are grown in small pots filled with a greenhouse potting mix. […] In all cases, mesotrione was applied at 420 g ai/ha and all treatments contained liquid ammonium sulphate at 2.5% v/v and NIS at 0.25% v/v. The application rates of iron-containing compounds indicated are iron equivalent rates. […] Percent injury levels were assessed 6, 9, and 16 days after treatment. Data presented are maximum injury occurring from any of the treatments at any time during the experiment.
# [4] = test system: untransformed clonal tobacco plants (WT); assay: Wild type tobacco herbicide damage, mesotrione with or without Sequestrene 138; type: in vivo, Nicotiana tabacum cv Samsun (tobacco)
# Protocol: Effect of Iron Chelates in Mitigating Foliar Bleaching Injury from HPPD Inhibiting Herbicides Across Various Transgenic HPPD Tolerant Tobacco Events Over-expressing HPPD Genes from Different Origins
# This experiment is carried out to determine whether iron chelates can mitigate the bleaching injury from HPPD inhibiting herbicides across various transgenic HPPD tolerant tobacco events over-expressing HPPD genes from different origins. These experiments are conducted using three distinct HPPD-overexpressing Nicotiana tabacum cv Samsun (tobacco) lines, one over-expressing wheat HPPD, one overexpressing an Avena HPPD and one over-expressing a HPPD from a bacterial source, Pseudomonas florescens. For each transgenic line, five identical clonal plants were sprayed with each herbicide treatment. Two untransformed clonal tobacco plants are also sprayed ([…]) with each herbicide treatment. Assessments are carried out 3, 7 and 14 days after herbicide application.
# All scores represent average % herbicide damage. […] An equivalent safening effect is not observed when the same chemical treatments are applied to wild type plants.
# [5] = Sequestrene 138Fe 1000 g/ha, g ai/ha: mesotrione 200, bicyclopyrone, pyrasulfatole 100, topramazone 50
# [6] = Sequestrene 138Fe 1000 g/ha, g ai/ha: mesotrione 800, bicyclopyrone, pyrasulfatole 400, topramazone 200
# [7] = no Sequestrene 138Fe, g ai/ha: mesotrione 200, bicyclopyrone, pyrasulfatole 100, topramazone 50
# [8] = no Sequestrene 138Fe, g ai/ha: mesotrione 800, bicyclopyrone, pyrasulfatole 400, topramazone 200
compound,measurement,setting,value
"CS(=O)(=O)c1ccc(C(=O)C2C(=O)CCCC2=O)c([N+](=O)[O-])c1 [Mesotrione, mesotrione]",Herbicide damage SYHT0H2,[1]; [5],3
same,Herbicide damage SYHT0H2,[1]; [6],18
same,Herbicide damage SYHT0H2,[1]; [7],13
same,Herbicide damage SYHT0H2,[1]; [8],23
same,Herbicide damage SYHT04R,[2]; [5],2
same,Herbicide damage SYHT04R,[2]; [6],17
same,Herbicide damage SYHT04R,[2]; [7],8
same,Herbicide damage SYHT04R,[2]; [8],32
same,% Injury,"[3]; Sequestrene 138Fe 0 g/ha, g ai/ha: mesotrione 26, isoxaflutole 26, bicyclopyrone 50, tembotrione 46, pyrasulfatole 22, topramezone 18",77%
same,% Injury,"[3]; Sequestrene 138Fe 140 g/ha tank mix, mesotrione 26, isoxaflutole 26 g ai/ha",78%
same,% Injury,SYHT0H2 soybeans,17%
same,% herbicide damage,"[4]; Trt 1: mesotrione 50 gai/ha alone, 3DAA",60% and 65%
same,% herbicide damage,"[4]; Trt 1: mesotrione 50 gai/ha alone, 7DAA",80%
same,% herbicide damage,"[4]; Trt 1: mesotrione 50 gai/ha alone, 14DAA",85%
same,% herbicide damage,"[4]; Trt 2: mesotrione 100 gai/ha alone, 3DAA",70%
same,% herbicide damage,"[4]; Trt 2: mesotrione 100 gai/ha alone, 7DAA",80%
same,% herbicide damage,"[4]; Trt 2: mesotrione 100 gai/ha alone, 14DAA",85% and 90%
same,% herbicide damage,"[4]; Trt 3: mesotrione 150 gai/ha alone, 3DAA",55% and 60%
same,% herbicide damage,"[4]; Trt 3: mesotrione 150 gai/ha alone, 7DAA",80%
same,% herbicide damage,"[4]; Trt 3: mesotrione 150 gai/ha alone, 14DAA",85%
same,% herbicide damage,"[4]; Trt 4: mesotrione 50 gai/ha + Sequestrene 138 1000 g/ha, 3DAA",50%
same,% herbicide damage,"[4]; Trt 4: mesotrione 50 gai/ha + Sequestrene 138 1000 g/ha, 7DAA",80%
same,% herbicide damage,"[4]; Trt 4: mesotrione 50 gai/ha + Sequestrene 138 1000 g/ha, 14DAA",70% and 75%
same,% herbicide damage,"[4]; Trt 5: mesotrione 100 gai/ha + Sequestrene 138 1000 g/ha, 3DAA",60%
same,% herbicide damage,"[4]; Trt 5: mesotrione 100 gai/ha + Sequestrene 138 1000 g/ha, 7DAA",80%
same,% herbicide damage,"[4]; Trt 5: mesotrione 100 gai/ha + Sequestrene 138 1000 g/ha, 14DAA",75% and 85%
same,% herbicide damage,"[4]; Trt 6: mesotrione 150 gai/ha + Sequestrene 138 1000 g/ha, 3DAA",60%
same,% herbicide damage,"[4]; Trt 6: mesotrione 150 gai/ha + Sequestrene 138 1000 g/ha, 7DAA",80%
same,% herbicide damage,"[4]; Trt 6: mesotrione 150 gai/ha + Sequestrene 138 1000 g/ha, 14DAA",85%
same,% herbicide damage,"[4]; Trt 7: mesotrione 200 gai/ha alone, 3DAA",60%
same,% herbicide damage,"[4]; Trt 7: mesotrione 200 gai/ha alone, 7DAA",80%
same,% herbicide damage,"[4]; Trt 7: mesotrione 200 gai/ha alone, 14DAA",85%
same,% herbicide damage,"[4]; Trt 8: mesotrione 300 gai/ha alone, 3DAA",65%
same,% herbicide damage,"[4]; Trt 8: mesotrione 300 gai/ha alone, 7DAA",80%
same,% herbicide damage,"[4]; Trt 8: mesotrione 300 gai/ha alone, 14DAA",90% and 85%
same,% herbicide damage,"[4]; Trt 9: mesotrione 400 gai/ha alone, 3DAA",55% and 60%
same,% herbicide damage,"[4]; Trt 9: mesotrione 400 gai/ha alone, 7DAA",80%
same,% herbicide damage,"[4]; Trt 9: mesotrione 400 gai/ha alone, 14DAA",85%
same,% herbicide damage,"[4]; Trt 10: mesotrione 200 gai/ha + Sequestrene 138 1000 g/ha, 3DAA",55% and 60%
same,% herbicide damage,"[4]; Trt 10: mesotrione 200 gai/ha + Sequestrene 138 1000 g/ha, 7DAA",80%
same,% herbicide damage,"[4]; Trt 10: mesotrione 200 gai/ha + Sequestrene 138 1000 g/ha, 14DAA",85%
same,% herbicide damage,"[4]; Trt 11: mesotrione 300 gai/ha + Sequestrene 138 1000 g/ha, 3DAA",50% and 60%
same,% herbicide damage,"[4]; Trt 11: mesotrione 300 gai/ha + Sequestrene 138 1000 g/ha, 7DAA",80%
same,% herbicide damage,"[4]; Trt 11: mesotrione 300 gai/ha + Sequestrene 138 1000 g/ha, 14DAA",90% and 85%
same,% herbicide damage,"[4]; Trt 12: mesotrione 400 gai/ha + Sequestrene 138 1000 g/ha, 3DAA",55% and 60%
same,% herbicide damage,"[4]; Trt 12: mesotrione 400 gai/ha + Sequestrene 138 1000 g/ha, 7DAA",80%
same,% herbicide damage,"[4]; Trt 12: mesotrione 400 gai/ha + Sequestrene 138 1000 g/ha, 14DAA",90% and 85%
same,% herbicide damage,"[4]; Trt 13: mesotrione 400 gai/ha alone, 3DAA",50% and 55%
same,% herbicide damage,"[4]; Trt 13: mesotrione 400 gai/ha alone, 7DAA",80%
same,% herbicide damage,"[4]; Trt 13: mesotrione 400 gai/ha alone, 14DAA",95% and 90%
same,% herbicide damage,"[4]; Trt 14: mesotrione 500 gai/ha alone, 3DAA",55% and 60%
same,% herbicide damage,"[4]; Trt 14: mesotrione 500 gai/ha alone, 7DAA",80%
same,% herbicide damage,"[4]; Trt 14: mesotrione 500 gai/ha alone, 14DAA",85%
same,% herbicide damage,"[4]; Trt 15: mesotrione 600 gai/ha alone, 3DAA",55%
same,% herbicide damage,"[4]; Trt 15: mesotrione 600 gai/ha alone, 7DAA",80%
same,% herbicide damage,"[4]; Trt 15: mesotrione 600 gai/ha alone, 14DAA",85%
same,% herbicide damage,"[4]; Trt 16: mesotrione 400 gai/ha + Sequestrene 138 1000 g/ha, 3DAA",60% and 55%
same,% herbicide damage,"[4]; Trt 16: mesotrione 400 gai/ha + Sequestrene 138 1000 g/ha, 7DAA",80%
same,% herbicide damage,"[4]; Trt 16: mesotrione 400 gai/ha + Sequestrene 138 1000 g/ha, 14DAA",90% and 95%
same,% herbicide damage,"[4]; Trt 17: mesotrione 500 gai/ha + Sequestrene 138 1000 g/ha, 3DAA",50% and 60%
same,% herbicide damage,"[4]; Trt 17: mesotrione 500 gai/ha + Sequestrene 138 1000 g/ha, 7DAA",80%
same,% herbicide damage,"[4]; Trt 17: mesotrione 500 gai/ha + Sequestrene 138 1000 g/ha, 14DAA",90%
same,% herbicide damage,"[4]; Trt 18: mesotrione 600 gai/ha + Sequestrene 138 1000 g/ha, 3DAA",55%
same,% herbicide damage,"[4]; Trt 18: mesotrione 600 gai/ha + Sequestrene 138 1000 g/ha, 7DAA",80%
same,% herbicide damage,"[4]; Trt 18: mesotrione 600 gai/ha + Sequestrene 138 1000 g/ha, 14DAA",90% and 85%
